The values that follow are results of earlier work, collected in patent publication US20250114367A1, “METHOD OF TREATING HAIR LOSS DISORDERS” (Sun Pharmaceutical Industries, Inc., priority 2023, published 2025).

In the data set the test system is subjects with AA. Conditions: ritlecitinib 50 mg; up to 48 weeks; FIG. 13C; cited from earlier work.

`C=CC(=O)N1C[C@H](Nc2ncnc3[nH]ccc23)CC[C@@H]1C` [ritlecitinib]: the “proportion of participants achieving SALT ≤20” value is given as not above 50%.
